Our source for the ED50 values is patent publication US20230339949A1, “HETEROCYCLIC SUBSTITUTED FUSED y-CARBOLINE DERIVATIVE, PREPARATION METHOD THEREFOR, INTERMEDIATE THEREOF AND USE THEREOF” (SHUJING BIOPHARMA CO., LTD, priority 2020, published 2023).

In this assay the test system is DOI-induced head-shaking behavior. Put plainly: DOI-induced head-shaking behavior in mice. In kind it is in vivo, ICR mice. To be noted: Mus musculus; male ICR mice, single gavage dose 1 h before DOI 1 mg/kg i.p., head-shakes counted 0-20 min; read-out: ED50 (half effective dose). The procedure: The efficacy of the compounds of the present disclosure was evaluated by the mice model of head-shaking behavior induced by intraperitoneal injection of (±) DOI (a hallucinogenic agent usually used to replicate anti-schizophrenic animal model).
Experimental animals: ICR mice, male, 8 mice/group, Spelford (Beijing) Biotechnology Co., Ltd.
Preparation of drug: the test compounds were taken, and solvent was added, and ultrasonication was performed.
Administration route and method: oral gavage administration, 10 mL/kg (body weight).
Administration frequency and duration: single dose.
Animals were stratified by body weight and then randomly divided into blank group, model group, and administration groups, and detailed information of administration is shown in the following table.
Mice were stratified according to body weight and then randomly divided into model group, blank group and each administration group. One hour after the animals were gavage administration of the solvent or drugs, they were placed in a beaker (13 cm in diameter, 19 cm in height) with fresh padding, and the model drug DOI was injected intraperitoneally at a dose of 1 mg/kg. The times of head-shaking were recorded within 0-20 minutes after DOI was injected intraperitoneally.
Head-shaking behavior is defined as rapid rotational twitch of mouse's head or wet dog-like shaking, which should be different from normal hair grooming or inquiry behavior.
The experimental data were expressed as x±SD, and SPSS statistical software was used to test the homogeneity of variance. If the variance was homogeneous, single factor analysis of variance was performed, and Dunnett t test is used for pairwise comparison. The ED50 was calculated by nonlinear fitting with GraphPad Primis5 software.

The term ED50 denotes the midpoint of the dose-response relation. As for `CN1C(=O)CN2c3c1cccc3[C@]1(C)CN(CCCC(=O)c3ccc(F)cc3)CC[C@H]21` [Embodiment 1-A, (6bR,10aS)-8-(4-(4-fluorophenyl)-4-oxobutyl)-3,6b-dimethyl-6b,7,8,9,10,10a-hexahydro-1H-pyrido[3′,4′:4,5]pyrrolo [1,2,3-de]quinoxalin-2(3H)-one], the ED50 was 0.024 mg/kg.
